In patent US20130018033A1, “RAF INHIBITOR COMPOUNDS AND METHODS OF USE THEREOF” (ARRAY BIOPHARMA INC., priority 2009, published 2013):
Read-outs that look alike come from different tables or passages of the source.

Assays:
[1] = target: T1, V600E full-length B-Raf (Homo sapiens, UniProt P15056, V600E); experiment: B-Raf IC50 assay (Example A); format: biochemical
T1 construct: 1 μM FSBA-MEK and 20 nM V600E full-length B-Raf; made in house; host or cells: Sf9 insect cells (baculovirus)
Method in brief: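 Sf9-expressed full-length V600E B-Raf (20 nM) phosphorylated 1 µM FSBA-modified wild-type MEK with 4 µM ATP plus [γ-33P]ATP in 25 mM Pipes pH 7.2, 100 mM KCl, 10 mM MgCl2. Enzyme and substrate were preincubated 15 min, and the reaction ran 60 min at 22 °C. It was TCA-quenched and filter-captured, and incorporated radioactivity was scintillation-counted.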

[2] = test system: basal ERK1/2 phosphorylation in Malme-3M cells; experiment: Cellular ERK 1/2 phosphorylation assay (Example A1); format: cell-based; settings: Homo sapiens, 1 hour incubation, pERK normalized to total ERK, read-out: P-ERK Malme3-M IC50
Method in brief: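 Malme-3M cells (24,000/well, RPMI-1640 with 10% FBS) were treated with compounds for 1 h at 37 °C, 1% DMSO final. Fixed, methanol-permeabilized cells were immunostained for pERK and total ERK and read by infrared fluorescence. pERK signal was normalized to total ERK.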

[3] = test system: subcutaneous LOX xenografts; experiment: Tumor growth inhibition (LOX), Example A3; format: in vivo; settings: female nude mice, LOX xenograft
Procedure: (§1) Female nude mice were implanted subcutaneously on the right flank with approximately 3.5×10^6 LOX cells in 100 μL PBS. Five to seven days later, tumors were measured and mice were randomized into groups of six with average tumor volume in each group of approximately 200 mm^3. Example 23 was dissolved in 80% PEG400/20% ethanol before dosing, and administered PO at a volume of 5 mL/kg. Dosing was vehicle alone on days 1, 2, 3 and 4; and Example 23 at 5 mg/kg on days 1, 2, 3 and 4. Animal weights and tumor volumes were measured using electronic calipers on day 5. Tumor volume was calculated using the formula: volume=(width^2×length)/2.

[4] = test system: subcutaneous LOX xenografts; experiment: Tumor growth inhibition (LOX), Example A2; format: in vivo; settings: female nude mice, LOX xenograft; for Tumor Volume (mm^3) Day 1: 10 mg/kg PO on days 1-4, Day 1; for Tumor Volume (mm^3) Day 3: 10 mg/kg PO on days 1-4, Day 3; for Tumor Volume (mm^3) Day 5: 10 mg/kg PO on days 1-4, Day 5
Procedure: as §1, with “mm^3. Examples 3 and 28 were” for “mm^3. Example 23 was”, “and Examples 3 and 28” for “and Example 23”, “at 10” for “at 5”, “formula: volume=(width2×length)/2.” for “formula: volume=(width^2×length)/2.”

[5] = B-Raf V600E assay of Example A, read-out: IC50
[6] = [γ-33P]ATP incorporation into FSBA-MEK, 4 μM ATP, read-out: BRAF V600E IC50

T1 sequence (P15056 whole entry V600E): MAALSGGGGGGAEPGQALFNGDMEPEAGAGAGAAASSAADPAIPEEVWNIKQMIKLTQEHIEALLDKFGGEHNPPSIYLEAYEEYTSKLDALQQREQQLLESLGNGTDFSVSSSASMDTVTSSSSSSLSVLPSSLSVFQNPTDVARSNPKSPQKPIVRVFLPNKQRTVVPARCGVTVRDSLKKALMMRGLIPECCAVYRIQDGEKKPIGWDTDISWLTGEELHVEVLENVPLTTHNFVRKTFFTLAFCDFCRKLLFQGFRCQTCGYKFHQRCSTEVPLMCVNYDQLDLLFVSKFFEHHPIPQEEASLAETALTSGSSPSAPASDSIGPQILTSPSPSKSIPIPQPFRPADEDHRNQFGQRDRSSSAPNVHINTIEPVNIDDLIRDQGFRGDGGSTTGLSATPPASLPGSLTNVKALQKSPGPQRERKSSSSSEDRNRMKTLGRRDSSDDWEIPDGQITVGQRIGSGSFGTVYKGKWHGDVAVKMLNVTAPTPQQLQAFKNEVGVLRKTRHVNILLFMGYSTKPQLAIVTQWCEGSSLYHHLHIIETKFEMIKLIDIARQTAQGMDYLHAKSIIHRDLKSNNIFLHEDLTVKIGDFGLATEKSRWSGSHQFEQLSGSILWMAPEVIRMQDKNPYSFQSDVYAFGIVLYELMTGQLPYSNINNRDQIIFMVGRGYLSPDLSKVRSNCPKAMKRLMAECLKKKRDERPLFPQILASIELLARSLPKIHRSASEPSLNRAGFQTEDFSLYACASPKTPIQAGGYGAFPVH

SMILES: Nc1ncnc2c(C(=O)Nc3c(F)ccc(NS(=O)(=O)CCCF)c3F)cccc12 [Example 23, 4-Amino-quinazoline-8-carboxylic acid [2,6-difluoro-3-(3-fluoro-propane-1-sulfonylamino)-phenyl]-amide]
- IC50 [1, 5]: < 0.1 µM
- IC50 [1, 6]: 0.00028 µM
- IC50 [2]: 3.89 nM
- Tumor Volume (mm^3) Day 1 ([3]; 5 mg/kg PO on days 1-4, Day 1): 221.32 mm^3
- Tumor Volume (mm^3) Day 3 ([3]; 5 mg/kg PO on days 1-4, Day 3): 280.81 mm^3
- Tumor Volume (mm^3) Day 5 ([3]; 5 mg/kg PO on days 1-4, Day 5): 157.52 mm^3

SMILES: CCCS(=O)(=O)Nc1ccc(F)c(NC(=O)c2cccc3c(N)ncnc23)c1C#N [Example 28, 4-Amino-quinazoline-8-carboxylic acid [2-cyano-6-fluoro-3-(propane-1-sulfonylamino)-phenyl]-amide]
- IC50 [1, 5]: < 0.1 µM
- IC50 [1, 6]: 0.00011 µM
- IC50 [2]: 14.4 nM
- Tumor Volume (mm^3) Day 1 [4]: 190.71 mm^3
- Tumor Volume (mm^3) Day 3 [4]: 176.38 mm^3
- Tumor Volume (mm^3) Day 5 [4]: 219.31 mm^3

SMILES: CCCS(=O)(=O)Nc1ccc(F)c(NC(=O)c2cccc3c(N)ncnc23)c1Cl [Example 3, 4-Amino-quinazoline-8-carboxylic acid [2-chloro-6-fluoro-3-(propane-1-sulfonylamino)-phenyl]-amide]
- IC50 [1, 5]: < 0.1 µM
- IC50 ([1]; BRAF V600E IC50 (μM), [γ-33P]ATP incorporation into FSBA-MEK, 4 μM ATP): 0.00053 µM
- IC50 [2]: 7.23 nM
- Tumor Volume (mm^3) Day 1 [4]: 190.33 mm^3
- Tumor Volume (mm^3) Day 3 [4]: 151.33 mm^3
- Tumor Volume (mm^3) Day 5 [4]: 118.41 mm^3
